Laboratory results published in US20040152895A1, “Sulfonamides” (priority 2003, published 2004).

Molecular target: T1, human and rat GPR-14 (UniProt Q9UKP6)
T1 sequence (Q9UKP6 1-389): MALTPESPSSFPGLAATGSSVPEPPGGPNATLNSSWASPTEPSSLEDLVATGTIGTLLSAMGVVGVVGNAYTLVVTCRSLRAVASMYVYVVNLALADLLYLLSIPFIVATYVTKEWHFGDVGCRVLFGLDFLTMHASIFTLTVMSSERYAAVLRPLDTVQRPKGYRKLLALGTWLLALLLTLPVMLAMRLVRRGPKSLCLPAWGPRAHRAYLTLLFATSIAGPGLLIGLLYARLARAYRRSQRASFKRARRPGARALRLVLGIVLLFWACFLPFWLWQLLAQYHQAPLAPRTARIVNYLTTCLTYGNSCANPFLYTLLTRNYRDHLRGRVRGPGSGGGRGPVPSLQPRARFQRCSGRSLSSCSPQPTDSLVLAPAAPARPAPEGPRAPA
Assay: Radioligand binding assay ([125I] h-U-II)
Settings: HEK-293 cell membranes, 200 pM [125I] h-U-II
Description: HEK-293 cell membranes containing stable cloned human and rat GPR-14 (20 ug/assay) were incubated with 200 pM [125I] h-U-II (200 Ci/mmol^−1 in the presence of increasing concentrations of test compounds in DMSO (0.1 nM to 10 uM), in a final incubation volume of 200 ul (20 mM Tris-HCl, 5 mM MgCl2). Incubation was done for 30 minutes at room temperature followed by filtration GF/B filters with Brandel cell harvester. ^125I labeled U-II binding was quantitated by gamma counting. Nonspecific binding was defined by ^125I U-II binding in the presence of 100 nM of unlabeled human U-II. Analysis of the data was performed by nonlinear least square fitting.

CCCSc1ncc(S(=O)(=O)Nc2ccc(Cl)c(OCCN(C)C)c2)c(OC)n1 [Example 1, 4-methoxy-2-propylsulfanyl-pyrimidine-5-sulfonic Acid [4-chloro-3-(2-dimethylamino-ethoxy)-phenyl]-amide]
Ki: 220 nM
